From ChEMBL document CHEMBL1130506, “Inhibition of the her2 tyrosine kinase and characterization of a hydrophobic site near the nucleotide binding domain” (Bioorg Med Chem Lett, 1997)
pIC50: −log10 of the molar value.

The compounds below were run against Receptor tyrosine-protein kinase erbB-2 (Homo sapiens, UniProt P04626) (assay: Inhibition of autophosphorylation of HER-2 expressed in NIH3T3 cell lines).
Format: cell-based

Receptor tyrosine-protein kinase erbB-2, sequence (P04626 whole entry): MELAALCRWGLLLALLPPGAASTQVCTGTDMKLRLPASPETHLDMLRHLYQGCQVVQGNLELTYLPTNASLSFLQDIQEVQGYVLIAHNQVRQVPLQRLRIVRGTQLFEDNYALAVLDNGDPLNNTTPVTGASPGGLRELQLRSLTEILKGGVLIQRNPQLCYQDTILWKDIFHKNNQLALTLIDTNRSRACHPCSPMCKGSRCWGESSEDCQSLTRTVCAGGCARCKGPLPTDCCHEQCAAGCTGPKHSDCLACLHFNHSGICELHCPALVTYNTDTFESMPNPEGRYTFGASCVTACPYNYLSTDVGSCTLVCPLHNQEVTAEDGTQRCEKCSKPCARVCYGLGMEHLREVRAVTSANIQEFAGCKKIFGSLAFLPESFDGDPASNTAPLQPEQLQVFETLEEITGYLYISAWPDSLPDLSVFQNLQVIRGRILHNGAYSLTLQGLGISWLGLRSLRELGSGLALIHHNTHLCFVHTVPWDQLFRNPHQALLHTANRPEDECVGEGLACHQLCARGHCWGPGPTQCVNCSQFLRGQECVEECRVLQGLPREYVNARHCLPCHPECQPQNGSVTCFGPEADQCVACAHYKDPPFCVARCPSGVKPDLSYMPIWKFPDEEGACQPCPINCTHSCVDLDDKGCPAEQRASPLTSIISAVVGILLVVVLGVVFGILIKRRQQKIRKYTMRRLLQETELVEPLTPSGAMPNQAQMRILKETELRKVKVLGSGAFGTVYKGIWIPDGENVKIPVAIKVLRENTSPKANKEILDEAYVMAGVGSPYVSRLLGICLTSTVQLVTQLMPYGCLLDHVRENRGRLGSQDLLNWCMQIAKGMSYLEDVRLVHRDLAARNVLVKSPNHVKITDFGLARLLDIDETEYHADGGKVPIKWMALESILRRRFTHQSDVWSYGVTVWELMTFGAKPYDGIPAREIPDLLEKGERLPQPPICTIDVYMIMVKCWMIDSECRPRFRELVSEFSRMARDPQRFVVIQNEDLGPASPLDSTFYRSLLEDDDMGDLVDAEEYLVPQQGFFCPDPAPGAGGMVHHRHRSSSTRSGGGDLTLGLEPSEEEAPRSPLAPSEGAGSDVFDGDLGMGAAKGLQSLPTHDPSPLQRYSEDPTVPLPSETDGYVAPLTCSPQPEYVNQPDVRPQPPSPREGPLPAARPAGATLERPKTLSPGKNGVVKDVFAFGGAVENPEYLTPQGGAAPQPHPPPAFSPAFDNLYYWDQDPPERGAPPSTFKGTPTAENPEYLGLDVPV

`O=C(CCCC(=O)Oc1ccc(/C=C/[N+](=O)[O-])cc1)Oc1ccccc1` and `COc1ccc(OC(=O)CCCC(=O)Oc2ccc(/C=C/[N+](=O)[O-])cc2)cc1` are within 0.2 log units of each other in pIC50: 5.36 for the first, 5.18 for the second.

`CC(C)O[C@@H]1[C@H](OC(C)C)[C@@H](COC(=O)CCCC(=O)Oc2ccc(/C=C/[N+](=O)[O-])cc2)O[C@H]1n1cnc2c(N)ncnc21` and `O=C(CCCC(=O)Oc1ccc(/C=C/[N+](=O)[O-])cc1)OCc1ccco1` are within 0.2 log units of each other in pIC50: 5.35 for the first, 5.42 for the second.
